Assay results: patent US20240158404A1, “MODULATORS OF ALPHA-1 ANTITRYPSIN” (Vertex Pharmaceuticals Incorporated, priority 2022, published 2024)

Tests used:
AAT = molecular target: T1, AAT (Homo sapiens, UniProt P01009, E366K); assay: Compound Quality score (potency in AAT functional assay multiplied by unbound clearance); settings: compound potency (EC50) x unbound clearance; class symbols
T1 construct: expressed in transfected cells; host or cells: NL20 human bronchial epithelial cells (NL20-SI cell line), with doxycycline added alongside the compounds
From the text: As used herein, the term “Compound Quality” refers to the potency of a compound multiplied (x) by the compound's unbound clearance as measured using the assays described in Example 6.
The terms “unbound clearance” refer to unbound intrinsic clearance (unbound CLint) in hepatocytes—the intrinsic clearance a drug would have in the absence of protein binding. Unbound CLint=CLint,hep/fu,hep, where CLint,hep is intrinsic clearance in hepatocytes and fu,hep is unbound fraction in hepatocytes.
A key consideration for the selection of compounds suitable for clinical development is the projection of human dose as described in Equations 1-3. Two key parameters that comprise the dose equation are the unbound clearance of a compound and the plasma efficacious exposure (also referred to herein as compound potency). Together these parameters are known to one skilled in the art as a measurement of Compound Quality and suitability for advancement into clinical development. Thus, when evaluating AAT modulator compounds, one needs to consider both the potency and unbound clearance parameters (i.e., Compound Quality). The relationship between these two parameters can be challenging to predict.
The values provided in the table below are calculated by multiplying the EC50 of each of the compounds by the result from the clearance assay procedures described in Section C above and rounded to two significant figures. In the table below, the following meanings apply for Compound Quality (i.e., compound potency x unbound clearance) values: “++++” means ≤0.2; “+++” means >0.20 and ≤0.30; “++” means >0.30 and ≤0.40; “+” means >0.40 and ≤0.50.

[1] = Exposure multiple in rat 5-day toxicology studies; format: in vivo; design: key to Exposure Multiple: ratio of tox-species AUC to target efficacious AUCss; settings: for EM Score: based on the maximum exposure multiple achieved in the rat 5-day toxicology study; for Exposure Multiple: rat 5-day toxicology study, vs predicted human efficacious exposure
From the text: “Exposure multiple” as used herein, refers to an assessment of relative compound exposure in toxicology studies. The calculation of an exposure multiple is accomplished by comparing the exposure (AUC) achieved in a toxicology species relative to the target efficacious exposure at steady state (AUCss). The larger exposure multiple provides the opportunity to explore higher doses relative to efficacious concentration in clinical development. However, the exposure that results in an adverse toxicological outcome is unpredictable.
The calculation of an exposure multiple is accomplished by comparing the plasma exposure (AUC) achieved in a toxicology species relative to the target efficacious exposure at steady state (AUCss). […] In addition, this exposure multiple can allow for further exploration of the desired pharmacology due to the opportunity for a larger window established in toxicology studies. However, the exposure that results in a toxicological outcome in preclinical toxicology studies is unpredictable.
Human exposure multiple (EM) values shown relate to the fold increase in exposure achieved in rat 5-day toxicology studies for a given dose relative to the predicted efficacious exposure anticipated in human (based on cellular NL20 EC50 in vitro efficacy). The exposure multiple score is based on the maximum exposure multiple achieved in the given study. This allows relative comparison across compounds when also considering the administered dose. […] In the tables below, the following meanings apply for exposure multiple scores: “−” means <1; “+” means 1-10; “++” means 10-20; “+++” means 20-30; “++++” means 30-50; and “+++++” means >50.

T1 sequence (P01009 25-418 E366K): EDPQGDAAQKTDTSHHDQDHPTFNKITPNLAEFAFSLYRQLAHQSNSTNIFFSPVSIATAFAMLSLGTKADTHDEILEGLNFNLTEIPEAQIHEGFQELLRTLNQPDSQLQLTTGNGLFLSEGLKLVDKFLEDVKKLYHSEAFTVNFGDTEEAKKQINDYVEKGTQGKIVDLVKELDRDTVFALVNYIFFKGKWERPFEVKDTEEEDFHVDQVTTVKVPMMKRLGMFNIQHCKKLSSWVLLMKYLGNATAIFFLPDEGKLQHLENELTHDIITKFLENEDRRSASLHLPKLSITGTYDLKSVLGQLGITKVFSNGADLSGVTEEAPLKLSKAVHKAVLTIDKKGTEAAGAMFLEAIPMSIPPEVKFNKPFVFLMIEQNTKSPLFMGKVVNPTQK

Compound Quality (AAT)	SMILES	EM Score [1]	other results
+++ (“+++” means >0.20 and ≤0.30)	CC[C@@](O)(COC)c1c(-c2ccc(C(=O)O)cc2)c2c(F)c3[nH]ncc3cc2n1-c1ccc(F)c(OC)c1 [Compound 3, (S)-4-(8-fluoro-5-(4-fluoro-3-methoxyphenyl)-6-(2-hydroxy-1-methoxybutan-2-yl)-1,5-dihydropyrrolo[2,3-f]indazol-7-yl)benzoic acid]	+++++ (“+++++” means >50)	Exposure Multiple ([1]; Bid dose 50 (daily 100)): 2; Exposure Multiple ([1]; Bid dose 200 (daily 400)): 17; Exposure Multiple ([1]; Bid dose 500 (daily 1000)): 60
–	O=C(O)c1ccc(-c2c(C3CCOCC3)n(-c3ccc(F)c(F)c3)c3cc4cn[nH]c4cc23)cc1 [reference compound]	− (“−” means <1)	Exposure Multiple ([1]; Bid dose 300 (daily 600)): 0.4
+++ (“+++” means >0.20 and ≤0.30)	CC[C@@](O)(COC)c1c(-c2ccc(C(=O)O)cc2)c2c(F)c3[nH]ncc3cc2n1-c1ccc(F)c(Cl)c1 [Compound 4]	++++ (“++++” means 30-50)	Exposure Multiple ([1]; Bid dose 50 (daily 100)): 8; Exposure Multiple ([1]; Bid dose 200 (daily 400)): 21; Exposure Multiple ([1]; Bid dose 400 (daily 800)): 32
–	COCC(C)(C)c1c(-c2ccc(C(=O)O)cc2)c2cc3[nH]ncc3cc2n1-c1ccc(F)cc1 [reference compound]	++ (“++” means 10-20)	Exposure Multiple ([1]; Bid dose 25 (daily 50)): 5; Exposure Multiple ([1]; Bid dose 50 (daily 100)): 13; Exposure Multiple ([1]; Bid dose 100 (daily 200)): 18
–	CC[C@](O)(COC)c1c(-c2ccc(C(=O)O)cc2)c2cc3[nH]ncc3cc2n1-c1ccc(F)c(Cl)c1 [reference compound]	+ (“+” means 1-10)	Exposure Multiple ([1]; Bid dose 100 (daily 200)): 2; Exposure Multiple ([1]; Bid dose 250 (daily 500)): 1; Exposure Multiple ([1]; Bid dose 500 (daily 1000)): 2
–	CC(C)(CC#N)c1c(-c2ccc(C(=O)O)cc2)c2cc3[nH]ncc3cc2n1-c1ccc(F)cc1 [reference compound]	+ (“+” means 1-10)	Exposure Multiple ([1]; Bid dose 287.5 (daily 575)): 1.8
+++ (“+++” means >0.20 and ≤0.30)	CC[C@@](O)(COC)c1c(-c2ccc(C(=O)O)cc2)c2c(F)c3[nH]ncc3cc2n1-c1ccc(F)c(C)c1 [Compound 2, (S)-4-(8-fluoro-5-(4-fluoro-3-methylphenyl)-6-(2-hydroxy-1-methoxybutan-2-yl)-1,5-dihydropyrrolo[2,3-f]indazol-7-yl)benzoic acid]	++++ (“++++” means 30-50)	Exposure Multiple ([1]; Bid dose 50 (daily 100)): 2; Exposure Multiple ([1]; Bid dose 200 (daily 400)): 10; Exposure Multiple ([1]; Bid dose 500 (daily 1000)): 40
++++ (“++++” means ≤0.2)	CC[C@@](O)(COC)c1c(-c2ccc(C(=O)O)cc2)c2c(F)c3[nH]ncc3cc2n1-c1ccc(F)cc1 [Compound 1, (S)-4-(8-Fluoro-5-(4-fluorophenyl)-6-(2-hydroxy-1-methoxybutan-2-yl)-1,5-dihydropyrrolo[2,3-f]indazol-7-yl)benzoic acid]	+++++ (“+++++” means >50)	Exposure Multiple ([1]; Bid dose 50 (daily 100)): 10; Exposure Multiple ([1]; Bid dose 200 (daily 400)): 82; Exposure Multiple ([1]; Bid dose 500 (daily 1000)): 126
++ (“++” means >0.30 and ≤0.40)	[2H]C([2H])([2H])C([2H])([2H])C(O)(COC)c1c(-c2ccc(C(=O)O)cc2)c2c(F)c3[nH]ncc3cc2n1-c1ccc(F)c(F)c1 (stereo not shown) [Compound 21]	–	–
++ (“++” means >0.30 and ≤0.40)	[2H]C([2H])([2H])Oc1cc(-n2c([C@@]3(O)C([2H])([2H])C([2H])([2H])C([2H])([2H])C([2H])([2H])[C@]3([2H])OC)c(-c3ccc(C(=O)O)cc3)c3c(F)c4[nH]ncc4cc32)ccc1F [Compound 31]	–	–
++ (“++” means >0.30 and ≤0.40)	CCOCC(O)(CC)c1c(-c2ccc(C(=O)O)cc2)c2c(F)c3[nH]ncc3cc2n1-c1cccc2cnn(C)c12 (stereo not shown) [Compound 64]	–	–
+++ (“+++” means >0.20 and ≤0.30)	CO[C@H]1CCCCC1(O)c1c(-c2ccc(C(=O)O)c(C)c2)c2c(F)c3[nH]ncc3cc2n1-c1ccc(F)cc1 (stereo partly shown) [Compound 56]	–	–
+++ (“+++” means >0.20 and ≤0.30)	CCC(O)(COC)c1c(-c2ccc(C(=O)O)c(C)c2)c2c(F)c3[nH]ncc3cc2n1-c1ccc(F)c(Cl)c1 (stereo not shown) [Compound 36]	–	–
–	CCC(O)(COC)c1c(-c2ccc(C(=O)O)cc2)c2cc3[nH]ncc3cc2n1-c1ccc(F)cc1 (stereo not shown) [reference compound]	++ (“++” means 10-20)	Exposure Multiple ([1]; Bid dose 250 (daily 500)): 14
+ (“+” means >0.40 and ≤0.50)	COC1CCCC1(O)c1c(-c2ccc(C(=O)O)cc2)c2c(F)c3[nH]ncc3cc2n1-c1ccc(F)c(C)c1 (stereo not shown) [Compound 43]	–	–
++++ (“++++” means ≤0.2)	[2H]C1([2H])C([2H])([2H])C([2H])([2H])[C@](O)(c2c(-c3ccc(C(=O)O)cc3)c3c(F)c4[nH]ncc4cc3n2-c2ccc(F)c(OC)c2)[C@@]([2H])(OC)C1([2H])[2H] [Compound 30]	–	–
+++ (“+++” means >0.20 and ≤0.30)	[2H]C([2H])([2H])Oc1cc(-n2c(C3(O)C([2H])([2H])C([2H])([2H])C([2H])([2H])C([2H])([2H])C3([2H])OC([2H])([2H])[2H])c(-c3ccc(C(=O)O)cc3)c3c(F)c4[nH]ncc4cc32)ccc1F (stereo not shown) [Compound 32]	–	–
++++ (“++++” means ≤0.2)	COC1CCCCC1(O)c1c(-c2ccc(C(=O)O)cc2)c2c(F)c3[nH]ncc3cc2n1-c1ccc(F)cc1 (stereo not shown) [Compound 26]	–	–
+++ (“+++” means >0.20 and ≤0.30)	CCOCC(O)(CC)c1c(-c2ccc(C(=O)O)cc2)c2c(F)c3[nH]ncc3cc2n1-c1ccc(F)c(OC)c1 (stereo not shown) [Compound 9]	–	–
++++ (“++++” means ≤0.2)	[2H]C1([2H])C([2H])([2H])C([2H])([2H])[C@](O)(c2c(-c3ccc(C(=O)O)cc3)c3c(F)c4[nH]ncc4cc3n2-c2ccc(F)cc2)[C@@]([2H])(OC)C1([2H])[2H] [Compound 29]	–	–
++ (“++” means >0.30 and ≤0.40)	CC[C@@](O)(COC)c1c(-c2ccc(C(=O)O)cc2)c2c(F)c3[nH]ncc3cc2n1-c1cccc(F)c1 [Compound 15]	–	–
+ (“+” means >0.40 and ≤0.50)	CCC(O)(COC)c1c(-c2ccc(C(=O)O)cc2F)c2c(F)c3[nH]ncc3cc2n1-c1ccc(F)c(C)c1 (stereo not shown) [Compound 63]	–	–
+++ (“+++” means >0.20 and ≤0.30)	CO[C@H]1CCCCC1(O)c1c(-c2ccc(C(=O)O)cc2)c2c(F)c3[nH]ncc3cc2n1-c1cc(F)c(F)cc1F (stereo partly shown) [Compound 61]	–	–
++++ (“++++” means ≤0.2)	CC[C@@](O)(COC)c1c(-c2ccc(C(=O)O)cc2)c2c(F)c3[nH]ncc3cc2n1-c1ccc(F)c(F)c1 [Compound 5, (S)-4-(5-(3,4-Difluorophenyl)-8-fluoro-6-(2-hydroxy-1-methoxybutan-2-yl)-1,5-dihydropyrrolo[2,3-f]indazol-7-yl)benzoic acid]	+++++ (“+++++” means >50)	Exposure Multiple ([1]; Bid dose 50 (daily 100)): 39; Exposure Multiple ([1]; Bid dose 150 (daily 300)): 114; Exposure Multiple ([1]; Bid dose 300 (daily 600)): 173
++ (“++” means >0.30 and ≤0.40)	CC[C@@](O)(COC)c1c(-c2ccc(C(=O)O)cc2)c2c(F)c3[nH]ncc3cc2n1-c1cc(F)c(F)c(OC)c1 [Compound 16]	–	–
+++ (“+++” means >0.20 and ≤0.30)	[2H]C([2H])([2H])C([2H])([2H])C(O)(COC)c1c(-c2ccc(C(=O)O)cc2)c2c(F)c3[nH]ncc3cc2n1-c1ccc(F)cc1 (stereo not shown) [Compound 18]	–	–
